From article PMC7904550, “Application of grouping and read-across for the evaluation of parabens of different chain lengths with a particular focus on endocrine properties” (Archives of Toxicology, 2021)

Tests used:
rats [1] = settings: acute oral, rats, OECD 401; ref ECHA dissemination portal; cited from earlier work
rats [2] = settings: rat, in vivo; cited from earlier work
[3] = Octanol–water partition coefficient (Log Kow); assay type: physicochemical; settings: mean; OECD TG 107 and OECD TG 117
From the text: Generally, these parabens have very similar physico-chemical properties.

rats [4] = settings: rat, in vivo; cited from earlier work; remark: listed apart in the source
rats [5] = settings: ref EFSA 2004; cited from earlier work
bacteria = settings: OECD 471; ref ECHA dissemination portal; cited from earlier work
SD-JCL rats = settings: feeding study, ref Sado 1973, Liebert 1984; cited from earlier work
[6] = Grouping and read-across of NOAEL (ECHA RAAF Scenario 5; analogue approach)
From the text: The strength of evidence for the respective AEs was scored by the assessment options indicated in the RAAF ranging from Score 5 (acceptable with high confidence) to Score 1 (not acceptable) (ECHA [2017b]).

rats [7] = settings: rat, in vivo; cited from earlier work; remark: listed apart in the source
rats [8] = settings: read-across from MP; ref ECHA dissemination portal; cited from earlier work
in vivo = settings: for concentration at 1 h / Tmax / AUC(0-t) / Cmax: Wistar, rat, serum; for concentration at 1 h: oral; for Tmax / AUC(0-t) / Cmax: po; for AUC(0-t) / Cmax / AUC0-1 h/AUC0–t / C1h/Cmax / Clast / tlast: parent compound
Protocol: These studies were conducted similarly to OECD TG 417 applying 500 and 1000 mg/kg body weight (bw) test item via oral gavage to 10 males and 10 females per dose group. Focus of the toxicokinetic evaluation was on the measurement of the serum concentrations of the parent compounds and their (common) major metabolite p-hydroxybenzoic acid by […] in order to assess the systemic uptake and elimination of the parent compounds and this major metabolite [see also ECHA ([2017a])]. The limit of quantification was determined as 10 ng/mL for all parabens, and as 130 ng/mL for p-hydroxybenzoic acid. […] On account of these major aims, investigations of the faeces and urine were not included in the toxicokinetics screening studies.

[9] = read-across by interpolation from methyl paraben and propyl paraben

In the case of `CCOC(=O)c1ccc(O)cc1` [Ethyl paraben, Ethyl 4-hydroxybenzoate], the LD50 (rats [1]) is given as > 3100 (OECD 401; 1982) mg/kg bw, the “Skin irritation/skin corrosion classification” value (rats [2]) is given as “Not irritating (OECD 404; 1983)” and the “Log Kow” value [3] is given as 2.3 (mean; OECD TG 107 and OECD TG 117). The Skin sensitisation classification (rats [4]) was “Not sensitising (equiv. OECD 406; 1981)”, the NOAEL (rats [5]) was 1000 mg/kg bw/day and the “Mutagenicity in bacteria classification” value (bacteria) was “Not mutagenic [c] (OECD 471; 2012)”. For the same molecule, the “NOAEL, 25-week repeated dose toxicity” value (SD-JCL rats) was “NOAEL: 1200 (25-week repeated dose toxicity [a]) mg/kg body weight/day”, the “NOAEL for repeated-dose toxicity and DART” value ([6]; interpolated from methyl paraben and propyl paraben) was 1000 mg/kg bw/day and the “NOAEL, EOGRTS: developmental and reproductive toxicity” value [6, 9] was “NOAEL: 1000 (Read-across by interpolation) mg/kg body weight/day”. The “NOAEL, developmental toxicity (OECD TG 414)” value [6, 9] was “NOAEL: 1000 (Read-across by interpolation) mg/kg body weight/day”, the “NOAEL, reproductive toxicity (OECD TG 421/422)” value [6, 9] was “NOAEL: 1000 (Read-across by interpolation) mg/kg body weight/day” and the “Eye irritation/eye corrosion classification” value (rats [7]) was “Not irritating (OECD 405; 1983)”. For the same molecule, the “Genetic toxicity in vivo (rats) classification” value (rats [8]) was “Not clastogenic (read-across from MP)”, the concentration at 1 h (in vivo; female, 500 mg/kg) was 116 ng/mL and the concentration at 1 h (in vivo; female, 1000 mg/kg) was 305 ng/mL. For the same molecule, the Tmax (in vivo; female, 500 mg/kg) was 4.8 min, the AUC(0-t) (in vivo; female, 500 mg/kg, AUC0-1 h) was 1080 ng·h/mL and the AUC(0-t) (in vivo; female, 500 mg/kg, AUC0–t) was 1540 ng·h/mL. It also gave a Cmax (in vivo; female, 500 mg/kg) of 5930 ng/mL, a Tmax (in vivo; female, 1000 mg/kg) of 10.2 min and an AUC(0-t) (in vivo; female, 1000 mg/kg, AUC0-1 h) of 1660 ng·h/mL. It also gave an AUC(0-t) (in vivo; female, 1000 mg/kg, AUC0–t) of 3320 ng·h/mL, a Cmax (in vivo; female, 1000 mg/kg) of 5150 ng/mL and a Cmax (in vivo; female, 1000 mg/kg, females) of 5000 ng/mL. The concentration at 1 h (in vivo; male, 500 mg/kg) was 71.6 ng/mL, the concentration at 1 h (in vivo; male, 1000 mg/kg) was 96.6 ng/mL and the Tmax (in vivo; male, 500 mg/kg) was 4.8 min. It also gave an AUC(0-t) (in vivo; male, 500 mg/kg, AUC0-1 h) of 320 ng·h/mL, an AUC(0-t) (in vivo; male, 500 mg/kg, AUC0–t) of 632 ng·h/mL and a Cmax (in vivo; male, 500 mg/kg) of 1540 ng/mL. For the same molecule, the Tmax (in vivo; male, 1000 mg/kg) was 4.8 min, the AUC(0-t) (in vivo; male, 1000 mg/kg, AUC0-1 h) was 490 ng·h/mL and the AUC(0-t) (in vivo; male, 1000 mg/kg, AUC0–t) was 789 ng·h/mL. The Cmax (in vivo; male, 1000 mg/kg) was 2390 ng/mL, the Cmax (in vivo; male, 1000 mg/kg, males) was 2000 ng/mL and the “AUC0-1 h/AUC0–t” value (in vivo; 500 mg/kg, female) was 70%. The C1h/Cmax (in vivo; 500 mg/kg, female) was 2.0%, the Clast (in vivo; 500 mg/kg, female) was 23.9 ng/mL and the tlast (in vivo; 500 mg/kg, female) was 8.0 h. For the same molecule, the “AUC0-1 h/AUC0–t” value (in vivo; 500 mg/kg, male) was 51%, the C1h/Cmax (in vivo; 500 mg/kg, male) was 4.7% and the Clast (in vivo; 500 mg/kg, male) was 70.6 ng/mL. The tlast (in vivo; 500 mg/kg, male) was 8.0 h, the “AUC0-1 h/AUC0–t” value (in vivo; 1000 mg/kg, female) was 50% and the C1h/Cmax (in vivo; 1000 mg/kg, female) was 5.9%. For the same molecule, the Clast (in vivo; 1000 mg/kg, female) was 168 ng/mL, the tlast (in vivo; 1000 mg/kg, female) was 8.0 h and the “AUC0-1 h/AUC0–t” value (in vivo; 1000 mg/kg, male) was 62%. The C1h/Cmax (in vivo; 1000 mg/kg, male) was 4.0%, the Clast (in vivo; 1000 mg/kg, male) was 33.3 ng/mL and the tlast (in vivo; 1000 mg/kg, male) was 8.0 h.
